{"source": "patent US12479866B2", "about": "“Boron-containing rho kinase inhibitors” (Percipiad, Inc., priority 2019, dated 2025)", "key": {"CDK2/CyclinE1": {"molecular_target": "CDK2/CyclinE1 (Homo sapiens (Human), UniProt P24941)", "test": "Kinase Selectivity Profiling General Panel (ADP-Glo)", "type": "biochemical", "conditions": "1 μM compound, read-out: Percent enzyme activity inhibition, CDK2/CyclinE1", "protocol": "After this incubation, 5 μl of ADP-Glo™ reagent was added to 5 μl reaction and incubated for 40 minutes. Then, 10 μl of Kinase Detection Reagent added to all assay wells in the assay plate and incubated at room temperature for 30 minutes."}, "[1]": {"molecular_target": "PKA-NanoLuc fusion protein (Homo sapiens (Human), UniProt P17612)", "test": "PKA-NanoBRET Target Engagement Intracellular Kinase Assay in HEK293 cells", "type": "cell-based", "conditions": "live HEK293 cells, 2 hours; read-out: Estimated IC50, inhibition of NanoBRET tracer binding to PKA", "protocol": "NanoBRET™ TE assay is based on the NanoBRET™ System, an energy transfer technique designed to measure molecular proximity in living cells. The NanoBRET™ TE assay measures the apparent affinity of test compounds by competitive displacement of the NanoBRET™ tracer, reversibly bound to a NanoLuc® luciferase-kinase fusions in cells. Using the NanoBRET™ TE Kinase Assay, a fixed concentration of tracer is added to cells expressing the desired NanoLuc® kinase fusion to generate a BRET signal. […] Centrifuged culture, resuspended cells in fresh culture media, and dispense 85 ul in to wells of 96-well plate. • 3. […] Added 10 μl of 10× serially diluted inhibitor compound per well containing cells with IX NanoBRET Tracer Reagent. Thoroughly mixed plate on an orbital shaker for 15 seconds at 700 rpm. • 5. […] Equilibrated plate to room temperature for ˜15 minutes. • 6. […] Measured donor emission wavelength (450 nm) and acceptor emission wavelength (610 nm) using the GloMax® Discover System (Promega). To generate raw BRET ratio values, divided the acceptor emission value (610 nm) by the donor emission value (450 nm) for each sample."}, "[2]": {"test": "Stability in liver microsomes (LC-MS/MS)", "type": "in vitro ADME", "conditions": "Human liver microsomes; for % Remaining of Initial (n = 1): 1 μM", "protocol": "Stability in liver microsomes. Experiment was conducted by Absorption Systems. Mixed-gender human liver microsomes (Lot #1210347) were purchased from XenoTech. The reaction mixture, minus NADPH, was prepared (Liver Microsomes 0.5 mg/mL, NADPH (cofactor) 1 mM, potassium phosphate, pH 7.4, 100 mM, MgCl2, 5 mM). The test article was added into the reaction mixture at a final concentration of 1 μM. The control compound, testosterone, was run simultaneously with the test article in a separate reaction. The reaction mixture (without cofactor) was equilibrated in a shaking water bath at 37° C. for 3 minutes. The reaction was initiated by the addition of the cofactor, and the mixture was incubated in a shaking water bath at 37° C. Aliquots (100 μL) were withdrawn at 0, 10, 20, 30, and 60 minutes. Test article and testosterone samples were immediately combined with 400 μL of ice-cold 50/50 acetonitrile (ACN)/H2O containing 0.1% formic acid and internal standard to terminate the reaction. The samples were then mixed and centrifuged to precipitate proteins. […] The peak area response ratio (PARR) to internal standard was compared to the PARR at time 0 to determine the percent remaining at each time point. Half-lives and clearance were calculated using GraphPad software, fitting to a single-phase exponential decay equation."}, "primary hTM cells": {"tested_on": "primary hTM cells", "test": "CellTox Green cytotoxicity assay in hTM cells", "type": "cell-based", "conditions": "24 h, 48 h, 72 h", "from_the_text": "Commercially available RealTime-Glo™ MT cell viability (Promega, catalog #G9712) and CellTox™ Green cytotoxicity (Promega, catalog #G8731) assays were used in assessing effect of compounds on primary hTM cell viability and cytotoxicity. The RealTime-Glo™ MT cell viability assay is a nonlytic, homogeneous, bioluminescent method that determines the number of viable cells in culture by measuring the reducing potential of cells and thus metabolism (MT). Viable cells reduce the proprietary pro-substrate to generate a substrate for NanoLuc® luciferase. This substrate diffuses from cells into the surrounding culture medium, where it is rapidly used by the NanoLuc® Enzyme to produce a luminescent signal. In a contrasting and complementary manner, CellTox™ Green cytotoxicity assay measures changes in membrane integrity that occur as a result of cell death. This assay system uses a proprietary asymmetric cyanine dye that is excluded from viable cells but preferentially stains the dead cells' DNA. […]\nHuman™ cells were cultured and maintained as described in Example 12. […] Light emitted by luciferase and fluorescence emitted by dye binding to DNA (excitation 485 nm and emission 525 nm) were measured at 24 h, 48 h, and 72 h after incubation using plate based luminescence and fluorescence plate readers."}, "[3]": {"tested_on": "New Zealand White rabbits", "conditions": "0.1 ml, 20 mg/ml in saline", "from_the_text": "The right eye that was not treated served as the control. […] The eyes of initial and confirmatory test animals were examined with slit lamp for ocular lesions. […] The animals were also observed for clinical signs of toxicity, morbidity and mortality."}, "HEK293 cells": {"tested_on": "HEK293 cells", "test": "CellTiter-Glo Luminescent Cell Viability Assay", "conditions": "HEK293 cells, 25, 2.5, or 0.25 μM, two days", "procedure": "We used CellTiter-Glo® Luminescent Cell Viability Assay (Promega, cat #G7573) to determine the number of viable cells in culture based on quantitation of the ATP present, which signals the presence of metabolically active cells. • 1. Prepared HEK293 suspension culture cells (ThermoFisher, cat #A14635) and added 50 μl cells in media (12,500 cells) to each well of a white, opaque-walled 96-well plate in triplicate. • 2. […] Incubated at 37° C. and 5% CO2 for two days. • 4. Added 100 μl of CellTiter-Glo® Reagent to each well and mix contents for 2 minutes on an orbital shaker to induce cell lysis. • 5. Recorded luminescence using a plate luminometer."}, "[4]": {"conditions": "water, thermodynamic from solid"}}, "note": "Where “and” joins values, the source holds several entries; their conditions need not be identical. Equal entries are not always repeated."}
{"smiles": "Cl.Cl.NCC(C(=O)Nc1ccc2cnccc2c1)c1ccc(B(O)O)cc1", "note": "(stereo not shown) [Compound 10•2HCl]", "values": [{"measurement": "inhibition at 1 µM", "setting": "CDK2/CyclinE1", "value": 11, "unit": "%"}, {"measurement": "IC50", "setting": "[1]", "value": 1.42, "unit": "µM"}, {"measurement": "% Remaining of Initial (n = 1)", "setting": "[2]; 0 min", "value": 100, "unit": "%"}, {"measurement": "% Remaining of Initial (n = 1)", "setting": "[2]; 10 min", "value": 98.0, "unit": "%"}, {"measurement": "% Remaining of Initial (n = 1)", "setting": "[2]; 20 min", "value": 91.5, "unit": "%"}, {"measurement": "% Remaining of Initial (n = 1)", "setting": "[2]; 30 min", "value": 89.6, "unit": "%"}, {"measurement": "% Remaining of Initial (n = 1)", "setting": "[2]; 60 min", "value": 80.8, "unit": "%"}, {"measurement": "half-life at 1 μM", "setting": "[2]; both sexes, pH 7.4", "value": "> 1", "unit": "h"}, {"measurement": "microsomal CLint at 1 μM", "setting": "[2]; both sexes, pH 7.4", "value": "< 23.1", "unit": "µL/min/mg"}, {"measurement": "Cytotoxicity / membrane integrity (in words)", "setting": "primary hTM cells", "value": "no effect on viability or membrane integrity"}, {"measurement": "clinical signs of toxicity, morbidity and mortality", "setting": "[3]", "value": "No treatment-related adverse effects were noticed"}, {"measurement": "Cell viability (ATP amount)", "setting": "HEK293 cells", "value": "same amount of ATP as cells without inhibitor"}, {"measurement": "solubility", "setting": "[4]", "value": "> 100000 µg/mL and > 234000 µM"}]}
